Measurements reported in patent US6787525B1, “Glyceryl nucleotides, method for the production thereof and their use” (priority 1998, dated 2004).

Legend:
MDA-N = assay: In vitro cytostatic effect (SRB): MDA-N, Breast cancer
HCT-116 = assay: In vitro cytostatic effect (SRB): HCT-116, Intestinal cancer
OVCAR-8 = assay: In vitro cytostatic effect (SRB): OVCAR-8, Ovarian cancer
UACC-257 = assay: In vitro cytostatic effect (SRB): UACC-257, Melanoma
PC-3 = assay: In vitro cytostatic effect (SRB): PC-3, Prostate cancer
HCT-15 = assay: In vitro cytostatic effect (SRB): HCT-15, Intestinal cancer; details: 48-hour incubation
NCI-H226 = assay: In vitro cytostatic effect (SRB): NCI-H226, Lung cancer
SK-MEL-5 = assay: In vitro cytostatic effect (SRB): SK-MEL-5, Melanoma
SNB-19 = assay: In vitro cytostatic effect (SRB): SNB-19, Cancer of the central nervous system
CCRF-CEM = assay: In vitro cytostatic effect (SRB): CCRF-CEM, Leukemia
RPMI-8226 = assay: In vitro cytostatic effect (SRB): RPMI-8226, Leukemia
DU-145 = assay: In vitro cytostatic effect (SRB): DU-145, Prostate cancer
TK-10 = assay: In vitro cytostatic effect (SRB): TK-10, Kidney cancer
NCI-H23 = assay: In vitro cytostatic effect (SRB): NCI-H23, Lung cancer
MDA-MB-435 = assay: In vitro cytostatic effect (SRB): MDA-MB-435, Breast cancer
IGROV1 = assay: In vitro cytostatic effect (SRB): IGROV1, Ovarian cancer
HS 578T = assay: In vitro cytostatic effect (SRB): HS 578T, Breast cancer
SN12C = assay: In vitro cytostatic effect (SRB): SN12C, Kidney cancer
KM12 = assay: In vitro cytostatic effect (SRB): KM12, Intestinal cancer
T-47D = assay: In vitro cytostatic effect (SRB): T-47D, Breast cancer
SK-MEL-2 = assay: In vitro cytostatic effect (SRB): SK-MEL-2, Melanoma
MDA-MB-231/ATCC = assay: In vitro cytostatic effect (SRB): MDA-MB-231/ATCC, Breast cancer
SK-OV-3 = assay: In vitro cytostatic effect (SRB): SK-OV-3, Ovarian cancer
SW-620 = assay: In vitro cytostatic effect (SRB): SW-620, Intestinal cancer
CAKI-1 = assay: In vitro cytostatic effect (SRB): CAKI-1, Kidney cancer
[1] = read-out: LC50, 48-hour incubation

Q: What does the source list for `Nc1ccn(C2CCC(COP(=O)(O)OCC(O)COP(=O)(O)OCC3OC(n4cc(F)c(=O)[nH]c4=O)CC3O)O2)c(=O)n1` (racemic) [NSC 704533, 2′,3′-didesoxycytidylyl-(5′→1)-racglycerylyl-(3→5′)-5-fluoro-2′-desoxyuridine]?
A: GI50 (MDA-N; 48-hour incubation): 25.4 µM; TGI (MDA-N; 48-hour incubation): >1.00E − 04 mol/l; CC50 (MDA-N; [1]): > 100 µM; GI50 (HCT-116; 48-hour incubation): 0.374 µM; TGI (HCT-116; 48-hour incubation): >1.00E − 04 mol/l; CC50 (HCT-116; [1]): > 100 µM; GI50 (OVCAR-8; 48-hour incubation): 0.141 µM; TGI (OVCAR-8; 48-hour incubation): >1.00E − 04 mol/l; CC50 (OVCAR-8; [1]): > 100 µM; GI50 (UACC-257; 48-hour incubation): > 100 µM; TGI (UACC-257; 48-hour incubation): >1.00E − 04 mol/l; CC50 (UACC-257; [1]): > 100 µM; GI50 (PC-3; 48-hour incubation): 2.28 µM; TGI (PC-3; 48-hour incubation): >1.00E − 04 mol/l; CC50 (PC-3; [1]): > 100 µM; GI50 (HCT-15): 17.9 µM; TGI (HCT-15): >1.00E − 04 mol/l; GI50 (NCI-H226; 48-hour incubation): > 100 µM; TGI (NCI-H226; 48-hour incubation): >1.00E − 04 mol/l; CC50 (NCI-H226; [1]): > 100 µM; GI50 (SK-MEL-5; 48-hour incubation): 0.689 µM; TGI (SK-MEL-5; 48-hour incubation): >1.00E − 04 mol/l; CC50 (SK-MEL-5; [1]): > 100 µM; GI50 (SNB-19; 48-hour incubation): 0.25 µM; TGI (SNB-19; 48-hour incubation): >1.00E − 04 mol/l; CC50 (SNB-19; [1]): > 100 µM; TGI (CCRF-CEM; 48-hour incubation): >1.00E − 04 mol/l; CC50 (CCRF-CEM; [1]): > 100 µM; GI50 (RPMI-8226; 48-hour incubation): 11 µM; TGI (RPMI-8226; 48-hour incubation): >1.00E − 04 mol/l; CC50 (RPMI-8226; [1]): > 100 µM; GI50 (DU-145; 48-hour incubation): 0.158 µM; TGI (DU-145; 48-hour incubation): >1.00E − 04 mol/l; CC50 (DU-145; [1]): > 100 µM; GI50 (TK-10; 48-hour incubation): 6.25 µM; TGI (TK-10; 48-hour incubation): >1.00E − 04 mol/l; CC50 (TK-10; [1]): > 100 µM; GI50 (NCI-H23; 48-hour incubation): 0.0979 µM; TGI (NCI-H23; 48-hour incubation): >1.00E − 04 mol/l; CC50 (NCI-H23; [1]): > 100 µM; GI50 (MDA-MB-435; 48-hour incubation): 4.76 µM; TGI (MDA-MB-435; 48-hour incubation): >1.00E − 04 mol/l; CC50 (MDA-MB-435; [1]): > 100 µM; GI50 (IGROV1; 48-hour incubation): 68 µM; TGI (IGROV1; 48-hour incubation): >1.00E − 04 mol/l; CC50 (IGROV1; [1]): > 100 µM; GI50 (HS 578T; 48-hour incubation): 0.732 µM; TGI (HS 578T; 48-hour incubation): >1.00E − 04 mol/l; CC50 (HS 578T; [1]): > 100 µM; GI50 (SN12C; 48-hour incubation): 0.173 µM; TGI (SN12C; 48-hour incubation): >1.00E − 04 mol/l; CC50 (SN12C; [1]): > 100 µM; GI50 (KM12; 48-hour incubation): 14.5 µM; TGI (KM12; 48-hour incubation): >1.00E − 04 mol/l; CC50 (KM12; [1]): > 100 µM; GI50 (T-47D; 48-hour incubation): 1.42 µM; TGI (T-47D; 48-hour incubation): >1.00E − 04 mol/l; CC50 (T-47D; [1]): > 100 µM; GI50 (HL-60(TB); Leukemia, 48-hour incubation): 0.0715 µM; TGI (HL-60(TB); Leukemia, 48-hour incubation): >1.00E − 04 mol/l; CC50 (HL-60(TB); read-out: LC50, Leukemia, 48-hour incubation): > 100 µM; GI50 (SK-MEL-2; 48-hour incubation): 79.4 µM; TGI (SK-MEL-2; 48-hour incubation): >1.00E − 04 mol/l; CC50 (SK-MEL-2; [1]): > 100 µM; GI50 (MDA-MB-231/ATCC; 48-hour incubation): 95.5 µM; TGI (MDA-MB-231/ATCC; 48-hour incubation): >1.00E − 04 mol/l; CC50 (MDA-MB-231/ATCC; [1]): > 100 µM; GI50 (SK-OV-3; 48-hour incubation): 44.3 µM; TGI (SK-OV-3; 48-hour incubation): >1.00E − 04 mol/l; CC50 (SK-OV-3; [1]): > 100 µM; GI50 (SW-620; 48-hour incubation): > 100 µM; TGI (SW-620; 48-hour incubation): >1.00E − 04 mol/l; CC50 (SW-620; [1]): > 100 µM; GI50 (CAKI-1; 48-hour incubation): 1.44 µM; TGI (CAKI-1; 48-hour incubation): >1.00E − 04 mol/l; CC50 (CAKI-1; [1]): > 100 µM
